Measurements from ChEMBL document CHEMBL2346572, “Discovery of AZD3514, a small-molecule androgen receptor downregulator for treatment of advanced prostate cancer” (Bioorg Med Chem Lett, 2013).
In brackets after ≈: the same amount, converted by molar mass. Activity calls are given as the source filed them. No cut-off for these calls is given here.

Legend:
[1] = Oral bioavailability in beagle dog at 10 umol/kg; format: ADME, organism-based, Canis lupus familiaris; settings: in vivo
[2] = Oral bioavailability in Han Wistar rat at 10 umol/kg; format: ADME, organism-based; settings: in vivo
[3] = Clearance in beagle dog at 2 umol/kg, iv and 10 umol/kg, po; format: ADME, organism-based, Canis lupus familiaris; settings: in vivo
[4] = Volume of distribution at steady state in Han Wistar rat at 3 umol/kg, iv and 10 umol/kg, po; format: ADME, organism-based; settings: in vivo, read-out: Vdss
[5] = test system: Rattus norvegicus; assay: Antiandrogenic activity in immature castrated Hershberger rat model assessed as inhibition of testosterone propionate-induced seminal vesicle growth at 50 to 100 mg/kg, po bid for 7 days; format: functional, organism-based
[6] = Fraction unbound in Han Wistar rat plasma by equilibrium dialysis method; format: ADME, cell-free
[7] = Intrinsic clearance in human hepatocytes measured per 10^6 cells
[8] = physchem; settings: phosphate buffer
[9] = target: T1, Androgen receptor (Homo sapiens, UniProt P10275); assay: Inhibition of androgen receptor-mediated cellular downregulation in human LNCAP cells assessed as decrease in nuclear receptor level after 20 to 22 hrs by laser-scanning fluorescence microplate cytometeric analysis; format: cell-based
T1 sequence (P10275 whole entry): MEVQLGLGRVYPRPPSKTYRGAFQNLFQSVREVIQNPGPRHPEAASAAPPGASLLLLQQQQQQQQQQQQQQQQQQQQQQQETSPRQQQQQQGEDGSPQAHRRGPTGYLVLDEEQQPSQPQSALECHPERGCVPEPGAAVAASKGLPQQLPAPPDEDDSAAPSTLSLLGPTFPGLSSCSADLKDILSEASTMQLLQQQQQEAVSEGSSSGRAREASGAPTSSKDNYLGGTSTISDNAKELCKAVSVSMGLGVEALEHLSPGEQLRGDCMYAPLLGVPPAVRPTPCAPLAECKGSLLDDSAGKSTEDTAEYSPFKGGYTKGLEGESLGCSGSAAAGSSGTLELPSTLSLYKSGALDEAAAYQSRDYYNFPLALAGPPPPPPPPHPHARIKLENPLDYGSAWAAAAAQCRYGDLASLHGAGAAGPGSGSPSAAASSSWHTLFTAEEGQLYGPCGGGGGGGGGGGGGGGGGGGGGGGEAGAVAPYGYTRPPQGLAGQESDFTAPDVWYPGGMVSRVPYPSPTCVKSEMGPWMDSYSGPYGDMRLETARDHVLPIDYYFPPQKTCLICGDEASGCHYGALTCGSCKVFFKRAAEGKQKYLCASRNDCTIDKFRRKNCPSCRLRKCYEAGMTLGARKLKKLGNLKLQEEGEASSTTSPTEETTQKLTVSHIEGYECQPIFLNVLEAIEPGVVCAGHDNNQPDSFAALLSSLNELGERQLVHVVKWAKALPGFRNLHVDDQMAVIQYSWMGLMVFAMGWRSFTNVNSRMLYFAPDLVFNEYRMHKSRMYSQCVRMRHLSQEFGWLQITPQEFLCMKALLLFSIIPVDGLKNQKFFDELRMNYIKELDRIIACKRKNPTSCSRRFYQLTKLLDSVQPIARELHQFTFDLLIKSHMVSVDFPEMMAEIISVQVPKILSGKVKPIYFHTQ

[10] = Volume of distribution at steady state in beagle dog at 2 umol/kg, iv and 10 umol/kg, po; format: ADME, organism-based, Canis lupus familiaris; settings: in vivo, read-out: Vdss
[11] = Clearance in Han Wistar rat at 3 umol/kg, iv and 10 umol/kg, po; format: ADME, organism-based; settings: in vivo
[12] = Fraction unbound in human plasma by equilibrium dialysis method; format: ADME, cell-free
[13] = Lipophilicity, log D of the compound at pH 7.4; settings: buffer
[14] = target: Voltage-gated inwardly rectifying potassium channel KCNH2 (Homo sapiens, UniProt Q12809); assay: Inhibition of human ERG by IonWorks assay
Voltage-gated inwardly rectifying potassium channel KCNH2, sequence (Q12809 whole entry): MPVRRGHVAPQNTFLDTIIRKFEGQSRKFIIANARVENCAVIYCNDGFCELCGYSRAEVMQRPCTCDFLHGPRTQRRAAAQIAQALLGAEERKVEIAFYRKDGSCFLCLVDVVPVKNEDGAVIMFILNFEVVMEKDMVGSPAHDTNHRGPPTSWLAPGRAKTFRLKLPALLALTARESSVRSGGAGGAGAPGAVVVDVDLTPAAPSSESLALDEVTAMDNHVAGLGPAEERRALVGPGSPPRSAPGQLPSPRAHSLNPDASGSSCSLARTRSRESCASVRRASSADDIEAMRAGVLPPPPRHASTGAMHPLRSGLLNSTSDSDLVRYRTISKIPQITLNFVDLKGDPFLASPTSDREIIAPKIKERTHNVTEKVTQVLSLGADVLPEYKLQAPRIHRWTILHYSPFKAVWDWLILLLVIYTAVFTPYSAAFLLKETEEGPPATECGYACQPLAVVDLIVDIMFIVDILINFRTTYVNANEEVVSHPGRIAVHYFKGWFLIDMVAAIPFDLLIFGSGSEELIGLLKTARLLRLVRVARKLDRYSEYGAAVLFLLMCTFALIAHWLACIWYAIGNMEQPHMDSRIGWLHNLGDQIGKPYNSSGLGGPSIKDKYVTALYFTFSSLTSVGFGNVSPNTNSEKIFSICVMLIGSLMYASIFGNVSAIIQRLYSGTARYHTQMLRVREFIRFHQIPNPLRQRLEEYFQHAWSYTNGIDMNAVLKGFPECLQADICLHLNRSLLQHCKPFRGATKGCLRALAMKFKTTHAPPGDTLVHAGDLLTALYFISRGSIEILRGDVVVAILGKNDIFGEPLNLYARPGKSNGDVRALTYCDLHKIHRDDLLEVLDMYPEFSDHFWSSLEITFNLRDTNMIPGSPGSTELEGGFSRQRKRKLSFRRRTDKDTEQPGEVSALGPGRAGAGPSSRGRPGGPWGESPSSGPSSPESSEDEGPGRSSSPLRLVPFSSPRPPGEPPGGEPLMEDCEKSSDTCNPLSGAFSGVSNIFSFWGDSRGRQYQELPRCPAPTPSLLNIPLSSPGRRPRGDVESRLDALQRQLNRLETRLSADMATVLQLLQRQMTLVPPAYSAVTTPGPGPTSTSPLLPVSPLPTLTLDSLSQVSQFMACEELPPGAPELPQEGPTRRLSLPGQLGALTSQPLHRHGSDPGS

[15] = test system: Rattus norvegicus; assay: Antiandrogenic activity in immature castrated Hershberger rat model assessed as inhibition of testosterone propionate-induced seminal vesicle growth at 2 mg/kg, po bid for 7 days; format: functional, organism-based; set-up: dose 2 mg/kg
[16] = Volume of distribution at steady state in Han Wistar rat at 4 umol/kg, iv and 5 umol/kg, po; format: ADME, organism-based; settings: in vivo, read-out: Vdss
[17] = Oral bioavailability in Han Wistar rat at 5 umol/kg; format: ADME, organism-based; settings: in vivo
[18] = target: T1, Androgen receptor; assay: Displacement of [3H]R1881 from full length androgen receptor in human LNCAP cells; format: cell-based
[19] = target: T2, Androgen receptor (Rattus norvegicus, UniProt P15207); assay: Binding affinity to rat androgen receptor ligand binding domain by fluorescence polarization assay
T2 sequence (P15207 whole entry): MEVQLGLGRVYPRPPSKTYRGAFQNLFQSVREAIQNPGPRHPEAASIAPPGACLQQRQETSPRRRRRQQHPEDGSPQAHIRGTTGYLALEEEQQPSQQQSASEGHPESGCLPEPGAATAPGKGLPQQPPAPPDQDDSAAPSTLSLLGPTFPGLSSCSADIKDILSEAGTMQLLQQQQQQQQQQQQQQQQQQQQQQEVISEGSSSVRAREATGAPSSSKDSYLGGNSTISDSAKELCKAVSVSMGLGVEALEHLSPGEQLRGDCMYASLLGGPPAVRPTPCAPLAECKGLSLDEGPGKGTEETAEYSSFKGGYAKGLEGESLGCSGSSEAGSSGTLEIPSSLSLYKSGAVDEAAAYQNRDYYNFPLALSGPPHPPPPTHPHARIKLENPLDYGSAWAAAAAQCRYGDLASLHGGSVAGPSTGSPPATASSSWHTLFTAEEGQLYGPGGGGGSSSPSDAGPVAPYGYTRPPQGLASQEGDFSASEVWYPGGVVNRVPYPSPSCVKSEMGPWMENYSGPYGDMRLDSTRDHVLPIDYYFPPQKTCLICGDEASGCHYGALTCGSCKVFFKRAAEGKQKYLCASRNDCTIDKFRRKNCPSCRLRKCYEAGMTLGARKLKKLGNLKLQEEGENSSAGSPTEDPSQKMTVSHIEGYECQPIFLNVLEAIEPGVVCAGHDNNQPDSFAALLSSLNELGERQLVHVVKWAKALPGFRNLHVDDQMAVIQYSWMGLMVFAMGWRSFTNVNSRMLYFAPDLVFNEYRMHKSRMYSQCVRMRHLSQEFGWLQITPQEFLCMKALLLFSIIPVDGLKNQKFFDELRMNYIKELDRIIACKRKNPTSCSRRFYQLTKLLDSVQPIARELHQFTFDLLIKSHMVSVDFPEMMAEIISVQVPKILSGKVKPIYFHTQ

[20] = Clearance in Han Wistar rat at 4 umol/kg, iv and 5 umol/kg, po; format: ADME, organism-based; settings: in vivo
[21] = Oral bioavailability in Han Wistar rat at 50 umol/kg; format: ADME, organism-based; settings: in vivo
[22] = Volume of distribution at steady state in Han Wistar rat at 20 umol/kg, iv and 50 umol/kg, po; format: ADME, organism-based; settings: in vivo, read-out: Vdss
[23] = Clearance in Han Wistar rat at 20 umol/kg, iv and 50 umol/kg, po; format: ADME, organism-based; settings: in vivo

| Compound | fraction unbound [6] | hepatocyte CLint [7] [µL/min/1e6 cells] | solubility thermodynamic at 24 h [8] [µM] | IC50 [9] [µM] | fraction unbound [12] | logD [13] | IC50 [14] [µM] | other results |
| --- | --- | --- | --- | --- | --- | --- | --- | --- |
| Cn1nccc1CCOc1ccc(C2CCN(c3ccc4nnc(C(F)(F)F)n4n3)CC2)cc1 | 0.0021 | 12 | < 0.73 | 0.234 | 0.0016 | > 4.3 | 17.8 | bioavailability [1]: 18%; bioavailability [2]: 43%; clearance [3]: 9.2 mL/min/kg; Vd [4]: 2.3 L/kg; growth inhibition (GI) [5]: Active; Vd [10]: 2.7 L/kg; clearance [11]: 22 mL/min/kg |
| Fc1ccc(CN2CCN(c3ccc4nnc(C(F)(F)F)n4n3)CC2)cc1 | 0.034 | 52 |  |  | 0.02 |  |  |  |
| CC(O)(CS(=O)(=O)c1ccc(F)cc1)C(=O)Nc1ccc(C#N)c(C(F)(F)F)c1 (centres undefined) |  |  |  |  |  |  |  | growth inhibition (GI) [15]: Active |
| CC(=O)N1CCN(CCOc2ccc(C3CCN(C4=Nn5c(nnc5C(F)(F)F)CC4)CC3)cc2)CC1 [AZD3514] | 0.094 | < 3 | 577 (≈ 300 µg/mL) | 1.78 | 0.12 | 2.5 | > 100 | bioavailability [1]: > 75%; clearance [3]: 12 mL/min/kg; Vd [16]: 2.1 L/kg; growth inhibition (GI) [5]: Active; bioavailability [17]: 74%; Vd [10]: 3.2 L/kg; Ki [18]: 2.2 µM; Ki [19]: 5 µM; clearance [20]: 6.6 mL/min/kg |
| OC1(c2ccc(F)cc2)CCN(c2ccc3nnc(C(F)(F)F)n3n2)CC1 | 0.036 | < 3 |  |  | 0.04 |  |  |  |
| Fc1ccc(CN2CCN(C3=Nn4c(nnc4C(F)(F)F)CC3)CC2)cc1 | 0.13 | 3.7 | 520 (≈ 199 µg/mL) | 5.89 | 0.12 | 2.8 | 29.5 |  |
| CC(=O)N1CCN(CCOc2ccc(C3CCN(c4ccc5nnc(C(F)(F)F)n5n4)CC3)cc2)CC1 | 0.012 | 12 |  | 0.324 | 0.027 |  | 11.2 |  |
| OC1(c2cccnc2)CCN(c2ccc3nnc(C(F)(F)F)n3n2)CC1 | 0.34 | < 3 | 100 (≈ 36.4 µg/mL) | 10.7 | 0.26 | 2.1 | 95.5 | bioavailability [21]: > 75%; bioavailability [1]: > 75%; clearance [3]: 18 mL/min/kg; growth inhibition (GI) [5]: Active; Vd [10]: 1.3 L/kg; Vd [22]: 5.7 L/kg; clearance [23]: 38 mL/min/kg |
| CC(=O)N1CCN(CCOc2ccc(C3(O)CCN(c4ccc5nnc(C(F)(F)F)n5n4)CC3)cc2)CC1 | 0.064 |  | 190 (≈ 101 µg/mL) |  | 0.17 | 2.2 | > 100 |  |
| Fc1cccc(CN2CCN(c3ccc4nnc(C(F)(F)F)n4n3)CC2)c1F | 0.018 | 22 |  | 2.09 | 0.017 |  | > 100 |  |
| N#Cc1ccc(CN2CCN(c3ccc4nnc(C(F)(F)F)n4n3)CC2)cc1 | 0.092 | < 3 | 8.4 (≈ 3.25 µg/mL) | 1.51 | 0.044 | 2.9 |  |  |
